The values below come from patent publication EP2510787A1, “Propenoates as fungicides” (Bayer CropScience AG, priority 2011, dated 2012).

A word on the chromatographic logP: it is a lipophilicity value derived from retention on a column. A higher chromatographic logP goes with a more lipophilic compound.

SMILES strings stand for the structures.

Tested on in the first data set: not listed separately
The experiment in a line: logP measurement by HPLC on reversed phase columns (EEC directive 79/831 Annex V.A8). Conditions: pH 2.7, pH 2,7 with 0,1 % formic acid in water and acetonitrile, linear gradient 10 % to 95 % acetonitrile. It counts as physicochemical.
Take `CCOC(=O)C(C#N)=C(SC(C)C(C)C)c1cccnc1Cl` (centres unmarked) [Example 1]: the chromatographic logP came out at 3.8. Consider `CCOC(=O)C(C#N)=C(OC(C)C(CC)CC)c1cccnc1Cl` (centres unmarked) [Example 2], for which the chromatographic logP came to 3.96. On the same count and under the same terms, to `CCOC(=O)C(C#N)=C(SC(C)CC)c1cn(C)nc1C(F)F` (centres unmarked) [Example 3] belongs 3.11. Still for that read-out and setting: the value for `CCOC(=O)C(C#N)=C(OC(C)CC(C)(C)C)c1cccnc1Cl` (centres unmarked) [Example 4] was 3.92; that for `CCOC(=O)C(C#N)=C(OC(C)C(C)(C)C)c1cccnc1Cl` (centres unmarked) [Example 5] was 3.57; that for `CCOC(=O)C(C#N)=C(SC(C)C(C)C)c1ccnn1C(F)F` (centres unmarked) [Example 6] was 3.59.

`CCOC(=O)C(C#N)=C(OC(C)C(C)C)c1cccnc1Cl` (centres unmarked) [Example 7] had a chromatographic logP of 3.27. The same measure, in the same setting: the value for `CCOC(=O)C(C#N)=C(OC(C)COC)c1cccnc1Cl` (centres unmarked) [Example 8] was 2.44. `CCOC(=O)C(C#N)=C(OC(C)C1=NOCCO1)c1cccnc1Cl` (centres unmarked) [Example 9] returned a chromatographic logP of 2.2. Same read-out and setting: to `C#CCC(C)OC(=C(C#N)C(=O)OCC)c1cccnc1Cl` (centres unmarked) [Example 10] belongs 2.61. On the same count and under the same terms, the value for `CCOC(=O)C(C#N)=C(OC(C)c1ccc(Cl)nc1)c1cccnc1Cl` (centres unmarked) [Example 11] was 2.9. The same measure, in the same setting: to `CCOC(=O)C(C#N)=C(OC(C)C(C)C)c1cn(C)nc1C(F)F` (centres unmarked) [Example 12] belongs 2.98. Turning to `CCOC(=O)C(C#N)=C(O[C@H](C)C(=O)OCC)c1cccnc1Cl` [Example 13], the chromatographic logP turned out to be 2.71. On the same count and under the same terms, to `CCOC(=O)C(C#N)=C(OC(C)C(C)C)c1ccnn1C(F)F` (centres unmarked) [Example 15] belongs 3.25. The same measure, in the same setting: to `CCOC(=O)C(C#N)=C(OC(C)C(C)C)c1scnc1Cl` (centres unmarked) [Example 16] belongs 3.37; to `CCOC(=O)C(C#N)=C(SC(C)c1ccccn1)c1cccnc1Cl` (centres unmarked) [Example 17], 2.51.

`CCOC(=O)C(C#N)=C(SC(C)C(C)C)c1cn(C)nc1C(F)F` (centres unmarked) [Example 19]: the chromatographic logP stood at 3.3. Still for that read-out and setting: to `CCOC(=O)C(C#N)=C(O[C@@H](C)C(=O)OC)c1cccnc1Cl` [Example 20] belongs 2.4; to `CCOC(=O)C(C#N)=C(OC1CCCCC1C)c1cccnc1Cl` (centres unmarked) [Example 21], 3.74. On the same count and under the same terms, the value for `CCOC(=O)C(C#N)=C(SC(C)C(C)C)c1scnc1Cl` (centres unmarked) [Example 22] was 3.79. Same read-out and setting: to `CCOC(=O)C(C#N)=C(OC(C)c1ccccn1)c1cccnc1Cl` (centres unmarked) [Example 23] belongs 2.39; to `CCOC(=O)C(C#N)=C(OC1(C(=O)OCC)CC1)c1cccnc1Cl` [Example 24], 2.9; to `CCCC(C)SC(=C(C#N)C(=O)OCC)c1cccnc1Cl` (centres unmarked) [Example 25], 3.78. Turning to `CCOC(=O)C(C#N)=C(OC(C)C=C(Cl)Cl)c1cccnc1Cl` (centres unmarked) [Example 26], the chromatographic logP worked out at 3.33.

The test system of another data set is Plasmopara viticola. The experiment in a line: Plasmopara test (grapevines) / preventive. It counts as in vivo. Conditions: preventive spray, 100 ppm of active ingredient, evaluated 6 days after the inoculation, 100 % = no disease. On the procedure:
Plasmopara test (grapevines) / preventive
To produce a suitable preparation of active compound, 1 part by weight of active compound is mixed with the stated amounts of solvent and emulsifier, and the concentrate is diluted with water to the desired concentration.
To test for preventive activity, young plants are sprayed with the preparation of active compound at the stated rate of application. After the spray coating has dried on, the plants are inoculated with an aqueous spore suspension of Plasmopara viticola and then remain for 1 day in an incubation cabinet at approximately 20°C and a relative atmospheric humidity of 100 %. The plant is subsequently placed for 4 days in a greenhouse at approximately 21°C and a relative atmospheric humidity of approximately 90 %. The plants are then misted and placed for 1 day in an incubation cabinet.
The test is evaluated 6 days after the inoculation. 0 % means an efficacy which corresponds to that of the untreated control, while an efficacy of 100 % means that no disease is observed.
In turn, `CCOC(=O)C(C#N)=C(SC(C)C(C)C)c1cccnc1Cl` (centres unmarked) [Example 1] displayed an Efficacy in % of 88%. Still for that read-out and setting: to `CCOC(=O)C(C#N)=C(SC(C)C(C)C)c1cn(C)nc1C(F)F` (centres unmarked) [Example 19] belongs 92%.
